Measured values taken from ChEMBL document CHEMBL5550117, “Dual-target inhibitors based on ERα: Novel therapeutic approaches for endocrine resistant breast cancer” (Eur J Med Chem, 2024).

Legend:
[1] = target: T1, Protein deacetylase HDAC6 (Homo sapiens, UniProt Q9UBN7); assay: Inhibition of HDAC6 (unknown origin)
T1 sequence (Q9UBN7 whole entry): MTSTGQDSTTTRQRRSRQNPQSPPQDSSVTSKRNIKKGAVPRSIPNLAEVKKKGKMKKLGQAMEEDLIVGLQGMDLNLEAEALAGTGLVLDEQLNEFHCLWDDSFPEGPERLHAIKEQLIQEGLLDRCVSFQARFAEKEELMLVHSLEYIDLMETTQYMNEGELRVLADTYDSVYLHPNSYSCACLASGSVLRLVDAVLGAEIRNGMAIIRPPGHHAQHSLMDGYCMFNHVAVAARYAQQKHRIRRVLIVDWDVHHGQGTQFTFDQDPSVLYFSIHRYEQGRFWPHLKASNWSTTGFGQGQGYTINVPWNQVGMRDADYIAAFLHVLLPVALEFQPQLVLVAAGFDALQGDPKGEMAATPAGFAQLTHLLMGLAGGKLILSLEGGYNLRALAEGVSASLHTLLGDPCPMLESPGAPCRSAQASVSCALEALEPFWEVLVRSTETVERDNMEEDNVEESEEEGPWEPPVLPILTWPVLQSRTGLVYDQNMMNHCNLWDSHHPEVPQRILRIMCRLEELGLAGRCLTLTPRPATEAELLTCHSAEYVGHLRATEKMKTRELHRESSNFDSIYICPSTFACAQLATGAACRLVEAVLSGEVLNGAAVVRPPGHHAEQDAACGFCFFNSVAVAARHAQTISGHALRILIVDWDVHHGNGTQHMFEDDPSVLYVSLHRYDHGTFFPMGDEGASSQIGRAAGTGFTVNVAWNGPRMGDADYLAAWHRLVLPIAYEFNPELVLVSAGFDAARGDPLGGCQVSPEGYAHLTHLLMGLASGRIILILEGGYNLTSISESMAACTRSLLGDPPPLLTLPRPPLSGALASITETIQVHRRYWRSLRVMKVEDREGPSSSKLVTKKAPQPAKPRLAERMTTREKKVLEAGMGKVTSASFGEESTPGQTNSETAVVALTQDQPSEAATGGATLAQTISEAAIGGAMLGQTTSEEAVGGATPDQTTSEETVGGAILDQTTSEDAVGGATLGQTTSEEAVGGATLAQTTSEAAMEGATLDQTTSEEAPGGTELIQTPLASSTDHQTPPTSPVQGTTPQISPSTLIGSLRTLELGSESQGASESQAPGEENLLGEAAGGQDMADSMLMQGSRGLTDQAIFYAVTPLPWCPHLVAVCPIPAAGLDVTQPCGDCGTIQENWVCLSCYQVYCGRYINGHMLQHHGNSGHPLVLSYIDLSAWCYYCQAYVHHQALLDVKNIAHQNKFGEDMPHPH

[2] = test system: MCF7; assay: Antiproliferative activity against human MCF7 cells assessed as reduction in cell viability incubated for 48 hrs by MTT assay; conditions: MCF7, 48 h
[3] = Inhibition of NF-kappaB pathway in human MCF7 cells assessed as reduction in TNFalpha level by RT-PCR analysis
[4] = test system: MCF7; assay: Anti-clonogenic activity in human MCF7 cells assessed as reduction of colony formation incubated for 2 weeks by crystal violet staining based assay; conditions: MCF7, 336 h

IC50 [1] [nM] | IC50 [2] [nM] | IC50 [3] [nM] | IC50 [4] [nM] | SMILES
2200 |  |  |  | CC/C(=C(\c1ccccc1)c1ccc(OCCN(C)Cc2ccc(NC(=O)CCCCCCC(=O)NO)cc2)cc1)c1ccccc1
 | 500 | 4000 | 2000 | CCOC(=O)/C=C/C(=O)NCCOc1ccc(C(=O)c2c(-c3ccc(O)cc3)sc3cc(O)ccc23)cc1
